Results from US4771057A, “Reduced pyridyl derivatives with cardiovascular regulating properties” (University of Alberta, priority 1986, dated 1988).

What was measured:
calcium channel = details: literature comparison for D-30; cited from earlier work
[1] = tested on: guinea pig ileal longitudinal smooth muscle; test: Calcium channel agonist testing: contractile response of guinea pig ileal longitudinal smooth muscle, compound given in place of CD; type: cell-based; details: for EC50: Cavia porcellus, given in the place of CD, no calcium antagonist added, read-out: effective dose producing 50% of the maximum contractile response
Protocol: Calcium channel antagonist activity was determined as the concentration required to produce 50% inhibition of the muscarinic receptor-mediated Ca^2+ -dependent contraction of guinea pig ileal longitudinal smooth muscle assay (C. Triggle, V. Swamy and D. Triggle, Can. J. Physiol. Pharmacol., 1979, 57, 804). Male albino guinea pigs (body weight 300-450 g) were sacrificed by decapitation. The intestine was removed above the ileo-caecal junction. Longitudinal smooth muscle segments of 2 cm length were mounted under a resting tension of 300-400 mg. The segments were maintained at 37° C. in a 10 mL jacketed organ bath containing oxygenated (100% O2) physiological saline solution of the following composition (mM): NaCl: 137; CaCl2 : 2.6; KCl: 5.9; MgCl2 : 1.2; glucose: 11.9; buffered by Hepes-NaOH to pH 7.4. The muscles were equilibrated for 1 h with a solution change every 15 min. Two successive control contractions were elicited at 15 min intervals with 5×10^-7 M cis-2-methyl- 4-dimethylaminomethyl-1,3-dioxolane methiodide (CD). The isometric contractions were recorded with a force displacement transducer (FT 03C) on a GRASS physiograph. The means of the two contractile responses was taken as the 100% value for the tonic (slow) component of the response. The muscle was washed with Hepes saline solution and was allowed to re-equilibrate. The calcium antagonist (test compound) was added ten min before the dose-response for CD was determined. The drug-induced inhibition of contraction was expressed as percent of control. The ID50 values were graphically determined from the concentration-response curves. The test results are shown in Table 7, the compounds testing being compared to Nifedipine (TM).
(§1) A modified protocol, used for testing calcium channel antagonists (vide supra), was used to determine the concentration at which D-30 produced 50% of the maximum contractile response. D-30 was administered in the place of CD and the dose-response curve was determined. A calcium antagonist was not added during the experiment. […] Similarly, the effective dose of the isomeric D-31 producing 50% of the maximum contractile response was 6.6×10^-5 M. Both D-30 and D-31 increased the guinea pig right atria heart rate by 30%.

guinea pig right atria = test: Guinea pig right atria heart rate; type: cell-based
Protocol: as §1

SMILES: COC(=O)C1=C(C)NC(C)=C([N+](=O)[O-])C1c1ccccc1C(F)(F)F (centres unmarked) [Bay K 8644]
- calcium channel agonist activity of reference compounds (calcium channel): calcium channel agonist which promotes calcium entry into cells

SMILES: COC(=O)C1=C(C)NC(C)=C([N+](=O)[O-])C1c1cccnc1 [Compound D-30, methyl 2,6-dimethyl-3-nitro-4-(3'-pyridyl)-1,4-dihydropyridine-5-carboxylate]
- EC50 [1]: 94 µM
- calcium channel agonist activity ([1]; conclusion from contractile response): calcium channel agonist which promotes calcium entry into cells
- muscle contraction ([1]; tested using the calcium channel antagonist testing procedure): caused muscle contraction
- increase of guinea pig right atria heart rate (guinea pig right atria): 30%

SMILES: COC(=O)C1=C(C)NC(C)=C([N+](=O)[O-])C1c1ccncc1 [Compound D-31, methyl 2,6-dimethyl-3-nitro-4-(4'-pyridyl)-1,4-dihydropyridine-5-carboxylate]
- EC50 [1]: 66 µM
- increase of guinea pig right atria heart rate (guinea pig right atria): 30%

SMILES: CCOC(=O)C1=C(C)NC2=C(C(=O)OC2)C1c1ccccc1OC(F)F (centres unmarked) [CGP 28392]
- calcium channel agonist activity of reference compounds (calcium channel): calcium channel agonist which promotes calcium entry into cells
